This series in a line: photoluminescence quantum yield (fraction); solvent given as SMILES.

As to `CCN(CC)c1ccc2cc(-c3nc4c5ccccc5c5ccccc5c4n3-c3ccc(C(C)(C)C)cc3)c(=O)oc2c1`, the photoluminescence quantum yield (in ClCCl) was 0.97.

Regarding `CCCCCCCCCCCCOc1cc(C(=O)Nc2ccc(-c3ccc4c(c3)C(=O)c3ccccc3-4)cc2)cc(OCCCCCCCCCCCC)c1OCCCCCCCCCCCC`, where the note is “in C1CCOC1”, the photoluminescence quantum yield was found to be 0.04.

The compound `COC(=O)c1nc(-c2ccc(OC)cc2)oc1C` had a photoluminescence quantum yield (in C1CCCCC1) of 0.55, a photoluminescence quantum yield (in CC#N) of 0.38, a photoluminescence quantum yield (in CCO) of 0.41 and a photoluminescence quantum yield (in CCOC(C)=O) of 0.31.

In turn, `COc1ccc(N(c2ccccc2)c2ccc(OC)cc2)cc1` gave a photoluminescence quantum yield (in Cc1ccccc1) of 0.03.

The compound `CCn1c2ccccc2c2cc(-c3cc(-c4ccc5c(c4)c4ccccc4n5CC)nc(SC)n3)ccc21` showed a photoluminescence quantum yield (in C1CCOC1) of 0.23; a photoluminescence quantum yield (in CCOC(C)=O) of 0.39; a photoluminescence quantum yield (in CN(C)C=O) of 0.46; a photoluminescence quantum yield (in Cc1ccccc1) of 0.35; a photoluminescence quantum yield (in ClCCl) of 0.31.

On to `CC(=O)Nc1ccc2ccc3cccc4ccc1c2c34`, for which the photoluminescence quantum yield stood at 0.23 (in CC#N), 0.27 (in CCCCOCCCC) and 0.13 (in CO).

`CCCC1(CCC)c2cc(-c3ccc(C(C)(C)C)cc3)ccc2-c2ccc(-c3ccc4c(c3)C(CCC)(CCC)c3cc(-c5ccc(C(C)(C)C)cc5)ccc3-4)cc21` returned a photoluminescence quantum yield (in C1CCCCC1) of 0.92.

Regarding `C(#Cc1cc2ccc3cc(C#Cc4ccccc4)cc4ccc(c1)c2c34)c1ccccc1`, under “in Cc1ccccc1”, the photoluminescence quantum yield was 0.29.

In the case of `CN1/C(=C/C=C/C2=[N+](C)c3ccccc3C2(C)C)Sc2ccccc21`, the photoluminescence quantum yield (in CS(C)=O) is 0.07.

In the case of `COc1cc2c3c(c4cc(OC)c(OC)c(OC)c4c2c(OC)c1OC)=[N+]1C(=C(c2c(C)cc(C)cc2C)c2cc4c5cc(OC)c(OC)c(OC)c5c5c(OC)c(OC)c(OC)cc5c4n2[B-]1(F)F)C=3`, the photoluminescence quantum yield worked out at 0.1 (in C1CCCCC1); 0.001 (in C1CCOC1); 0.001 (in CC#N); 0.001 (in Cc1ccccc1); 0.001 (in ClCCl).

Take `CC1=c2c3c4cccc5cccc(c=3c(C)[n+]2[B-](F)(F)n2c(C)c3c(c21)-c1cccc2cccc-3c12)c54`: the photoluminescence quantum yield (in ClC(Cl)Cl) amounted to 0.

For `Cc1ccc2nc3c(=O)[nH]c(=O)[nH]c3nc2c1`, the photoluminescence quantum yield is, setting by setting: (in CC#N) 0.017; (in ClCCCl) 0.024.

`CCC1=C(C)C2=Cc3c4ccccc4c4n3[B-](c3ccc5ccc6cccc7ccc3c5c67)(Oc3ccccc3-4)[N+]2=C1C` (stereo not drawn) showed a photoluminescence quantum yield (in CC#N) of 0.66, a photoluminescence quantum yield (in CCCCCC) of 0.72, a photoluminescence quantum yield (in Cc1ccccc1) of 0.66 and a photoluminescence quantum yield (in ClCCl) of 0.71.

Where the note is “in CCO”, `c1ccc2cc3cnccc3cc2c1` gave a photoluminescence quantum yield of 0.6.

For the setting “in Cc1ccccc1”, `COc1ccc(C2=C(c3ccc(OC)cc3)C(c3ccccc3)=[N+]3C2=Nc2c(-c4ccc(OC)cc4)c(-c4ccc(OC)cc4)c(-c4ccccc4)n2[B-]3(F)F)cc1` displayed a photoluminescence quantum yield of 0.01.

Under “in ClC(Cl)Cl”, `CSc1ccc(C#Cc2ccc(C#Cc3ccc(C#Cc4ccccc4C#N)cc3C#N)cc2C#N)cc1` yielded a photoluminescence quantum yield of 0.972.

With `Cc1ccc(C2=C3C=CC=[N+]3[B-](F)(F)n3cccc32)cc1`, the photoluminescence quantum yield came out at 0.036 (in C1CCCCC1); 0.018 (in CC#N); 0.025 (in CCO); 0.024 (in CCOC(C)=O); 0.018 (in CO); 0.031 (in OCC(F)(F)F).

`C(#Cc1cc2ccc3cccc4ccc(c1)c2c34)c1ccccc1` came in with a photoluminescence quantum yield (in Cc1ccccc1) of 0.44.

For `CC(C)CCC[C@@H](C)[C@H]1CC[C@H]2[C@@H]3CC=C4C[C@@H](OC(=O)Oc5cc(/C=C/C=C/c6ccc(N(C)C)cc6)ccc5[N+](=O)[O-])CC[C@]4(C)[C@H]3CC[C@]12C`, the photoluminescence quantum yield reads like this: (in C1CCCCC1) 0.29; (in C1COCCO1) 0.08; (in CCCCCCC) 0.28; (in Cc1ccccc1) 0.17.

As for `C(=C\c1nc2ccccc2o1)/c1ccccc1`, the photoluminescence quantum yield reads like this: (in C1CCCCC1) 0.05; (in CO) 0.006.

Take `COc1ccc(-c2cc(-c3ccc(C)cc3)nc3c(C#N)c(N4CCCC4)nc(N)c23)cc1`: the photoluminescence quantum yield reads like this: (in CC#N) 0.06; (in c1ccccc1) 0.084.

For `c1ccc(-c2nc3c4ccccc4c4ccccc4c3n2-c2ccc(-c3nc4c5ccccc5c5ccccc5c4n3-c3ccccc3)cc2)cc1`, under “in Cc1ccccc1”, the photoluminescence quantum yield worked out at 0.82.

As for `CC(C)(C)c1ccc2c(c1)c1cc(C(C)(C)C)ccc1n2-c1c(C#N)c(-n2c3ccc(C(C)(C)C)cc3c3cc(C(C)(C)C)ccc32)c(-n2c3ccc(C(C)(C)C)cc3c3cc(C(C)(C)C)ccc32)c(-n2c3ccc(C(C)(C)C)cc3c3cc(C(C)(C)C)ccc32)c1-n1c2ccc(C(C)(C)C)cc2c2cc(C(C)(C)C)ccc21`, the photoluminescence quantum yield (in Cc1ccccc1) was 0.86.

`CC1(C)Cc2c(c3ccccc3c3nc4ccccc4nc23)O1` gave a photoluminescence quantum yield (in C1CCCCC1) of 0.082; a photoluminescence quantum yield (in C1CCOC1) of 0.13; a photoluminescence quantum yield (in CN(C)C=O) of 0.44; a photoluminescence quantum yield (in CO) of 0.37; a photoluminescence quantum yield (in ClC(Cl)Cl) of 0.26; a photoluminescence quantum yield (in c1ccccc1) of 0.2.

Compound `Cc1ccc2nc(-c3cccc4nc(C)[nH]c(=O)c34)[nH]c2c1` had a photoluminescence quantum yield (in CN(C)C=O) of 0.036.

Compound `C(#Cc1cnc(C#Cc2ccccc2)nc1)c1ccccc1` showed a photoluminescence quantum yield (in C1CCCCC1) of 0.0009.

In the case of `COc1nc(Nc2ccc3ccc4cccc5ccc2c3c45)nc(OC)n1`, the photoluminescence quantum yield is, setting by setting: (in CC#N) 0.24; (in CCCCOCCCC) 0.57; (in CO) 0.02.

In the case of `Cc1cc(-c2cccc3ccccc23)cc(C)[o+]1`, the photoluminescence quantum yield (in ClCCl) was 0.22.

`CCCCN1C(=O)c2cccc3cccc(c23)C1=O` displayed a photoluminescence quantum yield (in Cc1ccccc1) of 0.04.

`Cc1cc(C)c(C2=C3C=C(c4ccccc4)C(c4ccccc4)=[N+]3[B-](F)(F)n3c2cc(-c2ccccc2)c3-c2ccccc2)c(C)c1` came in with a photoluminescence quantum yield (in C1CCCCC1) of 0.94; a photoluminescence quantum yield (in C1CCOC1) of 0.9; a photoluminescence quantum yield (in CC#N) of 0.87; a photoluminescence quantum yield (in Cc1ccccc1) of 0.75; a photoluminescence quantum yield (in ClCCl) of 0.74.

`CCOC(=O)c1cc(C(=O)OCC)c2cc(C)ccc2n1` came in with a photoluminescence quantum yield (in CCO) of 0.022.

In the case of `N#Cc1c(N2c3ccccc3C(c3ccccc3)(c3ccccc3)c3ccccc32)cccc1N1c2ccccc2C(c2ccccc2)(c2ccccc2)c2ccccc21`, the photoluminescence quantum yield (in Cc1ccccc1) was determined as 0.67.

In turn, `COc1cccc(-c2c3ccccc3c3n2[B-](F)(F)[N+]2=Cc4c5ccccc5c(-c5cccc(OC)c5)n4[B-](F)(F)[N+]2=C3)c1` gave a photoluminescence quantum yield (in CC#N) of 0.24; a photoluminescence quantum yield (in CCCCCC) of 0.34; a photoluminescence quantum yield (in CN(C)C=O) of 0.27; a photoluminescence quantum yield (in Cc1ccccc1) of 0.34; a photoluminescence quantum yield (in ClCCl) of 0.36.

`CN1CCc2cc(C3=Cc4cccc[n+]4[B-](F)(F)O3)ccc21` came in with a photoluminescence quantum yield (in ClC(Cl)Cl) of 0.639.

`N#Cc1c(-n2nnc3c2-c2ccccc2CN(C(=O)CCN)c2ccccc2-3)n([C@H]2C[C@H](O)[C@@H](CO)O2)c2ncnc(N)c12` showed a photoluminescence quantum yield (in CO) of 0.005.

In the case of `CN(c1ccccc1)c1ccc(/C=C2\C(=O)c3ccccc3S2(=O)=O)cc1`, the photoluminescence quantum yield by setting is: (in C1CCOC1) 0.003; (in C1COCCO1) 0.012; (in CC#N) 0.002; (in CC(C)=O) 0.001; (in CCOC(C)=O) 0.003; (in CN(C)C=O) 0.003. Moreover, the photoluminescence quantum yield reads like this: (in CO) 0.012; (in CS(C)=O) 0.018; (in Cc1ccccc1) 0.103; (in ClC(Cl)Cl) 0.008; (in ClCCl) 0.004.

Compound `COc1ccccc1CC(=O)OCc1c(C)c(=O)n2c(=O)c(C)c(C)n12` showed a photoluminescence quantum yield (in CCO) of 0.636.

As for `CN(C)c1ccc(/C=C/C=N/N=C/c2ccc3ccc4cccc5ccc2c3c45)cc1`, the photoluminescence quantum yield came to 0.032 (in CC#N); 0.02 (in CC(C)(C)O); 0.01 (in CC(C)=O); 0.015 (in CC(C)O); 0.018 (in CCCCO); 0.025 (in CO). For the same compound, the photoluminescence quantum yield worked out at 0.044 (in CS(C)=O), 0.007 (in ClC(Cl)Cl), 0.008 (in ClCCl) and 0.016 (in O).

Turning to `CCOC(=O)c1ccc2c(c1)sc1c3ccc(C(=O)OCC)cc3n(C)c21`, for the setting “in CCCO”, the photoluminescence quantum yield came to 0.65.

For the setting “in ClCCl”, `CCCc1ccc(C#Cc2cc(C#Cc3ccc(N(C)C)cc3)c3ccc4c(C#Cc5ccc(N(C)C)cc5)cc(C#Cc5ccc(N(C)C)cc5)c5ccc2c3c54)cc1` yielded a photoluminescence quantum yield of 0.47.

As to `CCN1C(=O)C(C2C(=O)c3c4ccccc4cc4cc5ccccc5c2c34)C(=O)N(CC)C1=S` (stereo not drawn), the photoluminescence quantum yield turned out to be 0.205 (in C1CCOC1), 0.316 (in CCCCCC), 0.052 (in Cc1ccccc1) and 0.237 (in ClCCl).

For the compound `CC(C)[Si](C#Cc1ccc2c(C#C[Si](C(C)C)(C(C)C)C(C)C)cc3c4cc(C#C[Si](C(C)C)(C(C)C)C(C)C)ccc4c(C#C[Si](C(C)C)(C(C)C)C(C)C)cc3c2c1)(C(C)C)C(C)C`, the photoluminescence quantum yield (in ClCCl) worked out at 0.741.

Turning to `CCCCCCC(CCCCCC)N1C(=O)c2cccc3c(-c4ccc(-c5ccc(OC)cc5)cc4)ccc(c23)C1=O`, the photoluminescence quantum yield is, setting by setting: (in CCCCCC) 0.5; (in CCCCCCCCCCCCCC) 0.5; (in CCCCCCCCCCCO) 0.56; (in CCCCO) 0.16; (in CN(C)C=O) 0.15; (in Cc1ccccc1) 0.4. Further, the photoluminescence quantum yield (in ClC(Cl)Cl) was 0.67.
